This note sets out measurements from PubChem BioAssay AID292 (DTP/NCI, 2004).

This assay concerns B6C3F1 mice, ip Sarcoma M5076, median survival T/C. Description: NCI In Vivo Anticancer Drug Screen. Data for tumor model Sarcoma M5076 (intraperitoneal) in B6C3F1 mice. As to conditions: endpoint: median survival time, higher = longer survival. The method, then:
The antitumor activity of compounds was measured in mice bearing transplantable tumors. Survival or tumor size were measured and the results are expressed as the measurement made in the treated group (T) divided by the measurement made in the vehicle treated control group (C). The tumor model used in this assay is Sarcoma M5076 (intraperitoneal) in B6C3F1 mice

Where [1] appears, read: dose: 100.0 mg/kg/injection, schedule: Q04DX004 (ip), vehicle: saline.
Where [2] appears, read: dose: 37.5 mg/kg/injection, schedule: Q04DX004 (ip), vehicle: saline with Tween-80.
[3] abbreviates: dose: 75.0 mg/kg/injection, schedule: Q04DX004 (ip), vehicle: saline with Tween-80.
[4] abbreviates: dose: 150.0 mg/kg/injection, schedule: Q04DX004 (ip), vehicle: saline with Tween-80.
[5] abbreviates: dose: 300.0 mg/kg/injection, schedule: Q04DX004 (ip), vehicle: saline with Tween-80.
Where [6] appears, read: dose: 600.0 mg/kg/injection, schedule: Q04DX004 (ip), vehicle: saline with Tween-80.
Setting [7] is: dose: 50.0 mg/kg/injection, schedule: Q04DX004 (ip), vehicle: saline with Tween-80.
[8] abbreviates: dose: 50.0 mg/kg/injection, schedule: Q04DX004 (ip), vehicle: Klucel (hydroxypropylcellulose) (HPC).
Setting [9] is: dose: 100.0 mg/kg/injection, schedule: Q04DX004 (ip), vehicle: Klucel (hydroxypropylcellulose) (HPC).

“And” between values parts separate entries of the source, which are not always exact repeats. Equal entries are not always repeated. Toxic doses and inconclusive results are not listed.

Turning to `CN(C)C=O`, the T/C reads like this: (dose: 10.0 mg/kg/injection, schedule: Q04DX004 (ip), vehicle: saline) 104 % of control; (dose: 20.0 mg/kg/injection, schedule: Q04DX004 (ip), vehicle: saline) 111 % of control; (dose: 40.0 mg/kg/injection, schedule: Q04DX004 (ip), vehicle: saline) 104 % of control; (dose: 80.0 mg/kg/injection, schedule: Q04DX004 (ip), vehicle: saline) 100 % of control; under setting [1], 103 % of control; (dose: 160.0 mg/kg/injection, schedule: Q04DX004 (ip), vehicle: saline) 104 % of control. Besides, the T/C (dose: 200.0 mg/kg/injection, schedule: Q04DX004 (ip), vehicle: saline) is 107 % of control; the T/C (dose: 400.0 mg/kg/injection, schedule: Q04DX004 (ip), vehicle: saline) is 100 % of control; the T/C (dose: 800.0 mg/kg/injection, schedule: Q04DX004 (ip), vehicle: saline) is 107 % of control; the T/C (dose: 1600.0 mg/kg/injection, schedule: Q04DX004 (ip), vehicle: saline) is 108 % of control.

As to `N[C@@H](Cc1c[nH]c2ccccc12)C(=O)Nc1nncs1`, the T/C (dose: 16.67 mg/kg/injection, schedule: Q03HX012 (ip), vehicle: saline) was 102 % of control; the T/C (dose: 33.34 mg/kg/injection, schedule: Q03HX012 (ip), vehicle: saline) is 101 % of control; the T/C (dose: 66.67 mg/kg/injection, schedule: Q03HX012 (ip), vehicle: saline) is 109 % of control; the T/C (dose: 100.0 mg/kg/injection, schedule: Q04DX004 (ip), vehicle: suspension in saline) was 95 % of control; the T/C (dose: 133.34 mg/kg/injection, schedule: Q03HX012 (ip), vehicle: saline) was 120 % of control; the T/C (dose: 200.0 mg/kg/injection, schedule: Q04DX004 (ip), vehicle: suspension in saline) is 111 % of control. The T/C was 120 % of control (dose: 266.67 mg/kg/injection, schedule: Q03HX012 (ip), vehicle: saline); 101 % of control (dose: 400.0 mg/kg/injection, schedule: Q04DX004 (ip), vehicle: suspension in saline); 118 % of control (dose: 800.0 mg/kg/injection, schedule: Q04DX004 (ip), vehicle: suspension in saline).

Turning to `Nc1nc(=O)nc2[nH]c3c4cccc5cccc(c3nc12)c54`, the T/C runs as follows: under setting [2], 101 % of control; under setting [3], 95 % of control; under setting [4], 98 % of control; under setting [5], 90 % of control; under setting [6], 94 % of control.

For the compound `CC(=O)OCc1cc(-c2nc3ccccc3[nH]c2=O)nn1-c1ccc(Cl)cc1`, the T/C is, setting by setting: (dose: 6.25 mg/kg/injection, schedule: Q04DX004 (ip), vehicle: distilled water + alcohol) 95 % of control; (dose: 12.5 mg/kg/injection, schedule: Q04DX004 (ip), vehicle: distilled water + alcohol) 91 % of control; (dose: 25.0 mg/kg/injection, schedule: Q04DX004 (ip), vehicle: distilled water + alcohol) 88 % of control and 91 % of control; (dose: 200.0 mg/kg/injection, schedule: Q04DX004 (ip), vehicle: distilled water + alcohol) 97 % of control.

In the case of `Clc1cccc(Cl)c1C(Nc1nncs1)Nc1nncs1`, the T/C is 112 % of control and 122 % of control under setting [7]; 123 % of control (dose: 100.0 mg/kg/injection, schedule: Q04DX004 (ip), vehicle: saline with Tween-80); 164 % of control (dose: 400.0 mg/kg/injection, schedule: Q04DX004 (ip), vehicle: saline with Tween-80); 157 % of control and 195 % of control (dose: 800.0 mg/kg/injection, schedule: Q04DX004 (ip), vehicle: saline with Tween-80).

As for `NCCCNCCCCNC(=O)C(O)NC(=O)CC(O)CCCCN=C(N)N` (stereo not given), the T/C was 117 % of control (dose: 50.0 mg/kg/injection, schedule: Q04DX004 (ip), vehicle: saline) and 115 % of control under setting [1].

`BrC[P+](CBr)(CBr)CBr`: the T/C by setting is: (dose: 15.63 mg/kg/injection, schedule: Q04DX004 (ip), vehicle: saline with Tween-80) 107 % of control and 115 % of control; (dose: 125.0 mg/kg/injection, schedule: Q04DX004 (ip), vehicle: saline with Tween-80) 186 % of control.

`COc1cc2c(c(OC)c1OC)-c1cccc(=O)cc1C(NC(C)=O)CC2` (stereo not given): the T/C is, setting by setting: (dose: 3.15 mg/kg/injection, schedule: Q04DX004 (ip), vehicle: Klucel (hydroxypropylcellulose) (HPC)) 98 % of control; (dose: 6.25 mg/kg/injection, schedule: Q04DX004 (ip), vehicle: Klucel (hydroxypropylcellulose) (HPC)) 113 % of control; (dose: 12.5 mg/kg/injection, schedule: Q04DX004 (ip), vehicle: Klucel (hydroxypropylcellulose) (HPC)) 107 % of control; (dose: 25.0 mg/kg/injection, schedule: Q04DX004 (ip), vehicle: Klucel (hydroxypropylcellulose) (HPC)) 116 % of control and 117 % of control; (dose: 36.0 mg/kg/injection, schedule: Q04DX004 (ip), vehicle: Klucel (hydroxypropylcellulose) (HPC)) 114 % of control; under setting [8], 115 % of control. For the same compound, the T/C runs as follows: (dose: 60.0 mg/kg/injection, schedule: Q04DX004 (ip), vehicle: Klucel (hydroxypropylcellulose) (HPC)) 113 % of control; under setting [9], 110 % of control and 121 % of control; (dose: 166.67 mg/kg/injection, schedule: Q04DX004 (ip), vehicle: Klucel (hydroxypropylcellulose) (HPC)) 107 % of control; (dose: 277.78 mg/kg/injection, schedule: Q04DX004 (ip), vehicle: Klucel (hydroxypropylcellulose) (HPC)) 111 % of control.

For `COc1cccc2c1C(=O)C1=C(C2=O)c2c(O)cc(CO)cc2C(O)C1O` (stereo not given), the T/C (dose: 6.25 mg/kg/injection, schedule: Q04DX004 (ip), vehicle: saline with Tween-80) was 100 % of control; the T/C (dose: 12.5 mg/kg/injection, schedule: Q04DX004 (ip), vehicle: saline with Tween-80) was 106 % of control; the T/C (dose: 25.0 mg/kg/injection, schedule: Q04DX004 (ip), vehicle: saline with Tween-80) was 92 % of control; the T/C under setting [7] is 101 % of control.

On to `O=C(Nc1cccc(C(F)(F)F)c1)C(Cl)=C(Cl)Cl`, for which the T/C by setting is: (dose: 37.5 mg/kg/injection, schedule: Q04DX004 (ip), vehicle: Klucel (hydroxypropylcellulose) (HPC)) 95 % of control; (dose: 75.0 mg/kg/injection, schedule: Q04DX004 (ip), vehicle: Klucel (hydroxypropylcellulose) (HPC)) 103 % of control; (dose: 150.0 mg/kg/injection, schedule: Q04DX004 (ip), vehicle: Klucel (hydroxypropylcellulose) (HPC)) 102 % of control; (dose: 300.0 mg/kg/injection, schedule: Q04DX004 (ip), vehicle: Klucel (hydroxypropylcellulose) (HPC)) 102 % of control; (dose: 600.0 mg/kg/injection, schedule: Q04DX004 (ip), vehicle: Klucel (hydroxypropylcellulose) (HPC)) 87 % of control.

Take `COc1cc(C2CC(C)(O)Oc3cc4c(cc32)OCO4)cc(OC)c1OC` (stereo not given): the T/C under setting [7] is 115 % of control.

`CCOC(=O)Cn1nc2oc(=O)c(CCN3CCN(c4ccccc4OC)CC3)c(C)c2c1C`: the T/C was 103 % of control under setting [8]; 103 % of control under setting [9]; 90 % of control (dose: 200.0 mg/kg/injection, schedule: Q04DX004 (ip), vehicle: Klucel (hydroxypropylcellulose) (HPC)); 94 % of control (dose: 400.0 mg/kg/injection, schedule: Q04DX004 (ip), vehicle: Klucel (hydroxypropylcellulose) (HPC)); 89 % of control (dose: 800.0 mg/kg/injection, schedule: Q04DX004 (ip), vehicle: Klucel (hydroxypropylcellulose) (HPC)).

In the case of `COc1ccccc1N1C(=O)C(=O)C(C(C)=O)C1=O` (stereo not given), the T/C by setting is: (dose: 43.75 mg/kg/injection, schedule: Q04DX004 (ip), vehicle: Klucel (hydroxypropylcellulose) (HPC)) 115 % of control; (dose: 87.5 mg/kg/injection, schedule: Q04DX004 (ip), vehicle: Klucel (hydroxypropylcellulose) (HPC)) 98 % of control; (dose: 175.0 mg/kg/injection, schedule: Q04DX004 (ip), vehicle: Klucel (hydroxypropylcellulose) (HPC)) 100 % of control; (dose: 350.0 mg/kg/injection, schedule: Q04DX004 (ip), vehicle: Klucel (hydroxypropylcellulose) (HPC)) 98 % of control.

Consider `OCCC(N1CCOCC1)C(O)(c1ccccc1)c1ccccc1` (stereo not given), for which the T/C is 103 % of control under setting [2]; 106 % of control under setting [3]; 107 % of control under setting [4]; 100 % of control under setting [5]; 93 % of control under setting [6].
